Experiments:
[1] = PAMPA-BBB permeability (porcine brain lipid artificial membrane); type: in vitro ADME; design: key to PAMPA prediction of the penetration into the central nervous system (CNS): permeable to the BBB (CNS+) if it has a permeability >4.48×10^−6 cm·s^−1; CNS+/−: located in the zone of uncertainty; conditions: for Papp at 2.5 h: pig, PAMPA, porcine brain lipid, PBS pH 7.4/EtOH 70:30, 2 h 30 min at 25° C., mean ± SD, read-out: Pe (permeability, PAMPA-BBB); for PAMPA prediction of the penetration into the central nervous system (CNS): prediction from Pe, PAMPA-BBB
Text: An essential requirement that must be met by drugs for the treatment of neurodegenerative diseases is the ability to cross the blood-brain barrier (BBB) since, otherwise, they could not act on the target of interest. Therefore, for the compounds that are non-permeable or located in the zone of uncertainty, it could be necessary for them to be suitably conveyed in a pharmaceutical formulation by means of methods known by those skilled in the art, such as by means of encapsulation. This ability can be predicted in vitro by using a method known by the acronym PAMPA (Parallel Artificial Membrane Permeability Assay) described by Di et al. (Di, L.; Kerns, E. H.; Fan, K.; McConnell, O. J.; Carter, G. T. Eur. J. Med. Chem., 2003, 38 (3), 223-232) and that has subsequently been fine-tuned in our research group. Said method enables the effective permeability through artificial membranes to be predicted by means of a passive diffusion process.
First, it is necessary to validate the method, for which reason 10 commercial compounds, whose ability to penetrate the central nervous system (CNS) is known, are used and will be specified below, obtaining in this case good linear correlation between the experimental permeability values (Pe) and those described (FIG. 1). This correlation line obtained following the pattern described in the literature makes it possible to establish the limits for predicting whether a compound can cross the blood-brain barrier or not. Thus, a compound is considered to be permeable to the BBB (CNS+) if it has a permeability >4.48×10^−6 cm·s^−1.
For the procedure, between 3-5 mg of caffeine, desipramine, enoxacin, hydrocortisone, ofloxacin, piroxicam and testosterone, 12 mg of promazine and 25 mg of atenolol and verapamil were taken and dissolved in EtOH (1000 μl). 100 μl of these solutions were taken and EtOH (1400 μl) and phosphate buffer (PBS) pH=7.4 (3500 μl) were added in order to reach a final EtOH concentration of 30% v/v in solution. Lastly, the solutions were filtered.
Moreover, a solution of PBS/EtOH (70:30) was added to each well of the acceptor plate (180 μl). The donor plate was impregnated with a solution of porcine brain lipid (4 μl) dissolved in dodecane (20 mg·ml^−1). After 5 min, a solution of each compound was added on this plate (180 μl).
Of the compounds evaluated, between 1-2 mg were taken and dissolved in EtOH (1500 μl) and phosphate buffer (PBS) pH=7.4 (3500 μl), filtered and added to the donor plate. With these solutions, the wavelengths at which they absorb the compounds are determined and the initial absorbance levels at these wavelengths are measured by using a UV absorbance reader. Each sample was analysed at two to five wavelengths, in three wells and in two independent experiments.
Next, the donor plate was deposited on the acceptor plate forming a sort of “sandwich” and they were left to incubate for 2 h and 30 min at 25° C. Thus, the compounds will pass from the donor plate to the acceptor plate through the porcine brain lipid by means of passive diffusion. After that time, the donor plate is carefully removed and the final concentration and absorbance of both the commercial and the synthesised compounds are determined. The results obtained are expressed as the mean of the measurements [standard deviation (SD)] of the different experiments performed and are recorded in Table 2.

[2] = biological target: recombinant human Cdc7/DBF4 (Homo sapiens, UniProt O00311); experiment: LanthaScreen Eu Kinase Inhibition Assay (Cdc7 inhibition); type: binding; conditions: recombinant human Cdc7/DBF4 0.5 nM, 60 min room temperature, 1% DMSO; read-out: Cdc7 CI50
Text: The LanthaScreen Eu Kinase Inhibition Assay uses an Alexa Fluor™ marker which binds to a kinase and is detected by the addition of an Eu-labelled antibody. The binding of the marker and the antibody to the kinase results in a high degree of FRET, whereas the displacement of the marker by an inhibitor results in a loss of FRET. Unlike many other kinase activity assays, this is a simple mix and read assay, without stages of development. This assay method has been developed by “Life Technologies” and they identify competitive ATP kinase inhibitors, making them suitable for the detection of any compound which binds to the ATP site.
The compounds are evaluated in 1% DMSO (final) in the well. A mixture of recombinant human Cdc7/DBF4 (0.5 nM), Eu-anti-GST antibody (2 nM) and Alexa Fluor marker (1 nM) in a buffer of 50 mM HEPES pH 7.5, 0.01% BRIJ-35, 10 mM MgCl2, 1 mM EGTA was used. In white plates with […], with a low volume, and coded (Greiner cat. #784207), 160 nL (100×compound in 100% DMSO), 3.84 μl (buffer with Cdc7/DBF4), […] (antibody), 4.0 μl (marker) are added. It is stirred for 30 s and incubated at room temperature for 60 min. Next, the fluorescence is measured in the plate reader and the data is analysed (Table 1).

[3] = test system: SH-SY5Y human neuroblastoma cell line; experiment: cells; type: cell-based
Method: The data represents the mean of four different experiments ±SEM (*p<0.05).
The SH-SY5Y human neuroblastoma cell line was grown at 37° C. with 5% CO2 in DMEN (Dulbecco's Modified Eagle Medium) enriched with L-glutamine (2 mM), 1% non-essential amino acids, 1% Penicillin/Streptomycin and 10% foetal bovine serum. In the state of semi-confluence, the cells were treated with the Cdc7 inhibitor (compound 3) at different concentrations for 1.30 hours post-addition of the causative agent of the TDP-43 phosphorylation; ethacrynic acid (20 μM) (Sigma). At 24 hours, the cellular viability was evaluated with MTT ([3-(4,5-dimethylthiazol-2-yl)-2,5-diphenyltetrazolium bromide) following a described procedure (Denizot F, Lang R. J Immunol Methods. 1987; 89:271-7).

recombinant human Cdc7/DBF4, sequence (O00311 whole entry): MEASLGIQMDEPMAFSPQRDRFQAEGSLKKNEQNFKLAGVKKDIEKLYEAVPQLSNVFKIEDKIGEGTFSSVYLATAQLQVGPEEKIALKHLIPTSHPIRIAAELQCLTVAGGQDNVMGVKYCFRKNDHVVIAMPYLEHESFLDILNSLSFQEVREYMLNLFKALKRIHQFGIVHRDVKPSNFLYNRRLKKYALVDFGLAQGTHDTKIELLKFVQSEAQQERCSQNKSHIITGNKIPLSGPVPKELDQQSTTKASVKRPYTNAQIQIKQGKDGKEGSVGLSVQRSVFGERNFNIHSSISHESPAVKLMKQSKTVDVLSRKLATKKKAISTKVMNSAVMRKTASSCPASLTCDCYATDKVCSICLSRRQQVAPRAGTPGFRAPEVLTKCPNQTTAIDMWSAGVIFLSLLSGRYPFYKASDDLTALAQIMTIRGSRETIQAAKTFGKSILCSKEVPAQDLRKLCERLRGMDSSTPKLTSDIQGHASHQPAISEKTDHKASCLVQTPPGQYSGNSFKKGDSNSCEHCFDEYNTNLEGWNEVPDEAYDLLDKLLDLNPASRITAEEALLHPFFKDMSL
recombinant human Cdc7/DBF4, sequence (Q9UBU7 whole entry partner): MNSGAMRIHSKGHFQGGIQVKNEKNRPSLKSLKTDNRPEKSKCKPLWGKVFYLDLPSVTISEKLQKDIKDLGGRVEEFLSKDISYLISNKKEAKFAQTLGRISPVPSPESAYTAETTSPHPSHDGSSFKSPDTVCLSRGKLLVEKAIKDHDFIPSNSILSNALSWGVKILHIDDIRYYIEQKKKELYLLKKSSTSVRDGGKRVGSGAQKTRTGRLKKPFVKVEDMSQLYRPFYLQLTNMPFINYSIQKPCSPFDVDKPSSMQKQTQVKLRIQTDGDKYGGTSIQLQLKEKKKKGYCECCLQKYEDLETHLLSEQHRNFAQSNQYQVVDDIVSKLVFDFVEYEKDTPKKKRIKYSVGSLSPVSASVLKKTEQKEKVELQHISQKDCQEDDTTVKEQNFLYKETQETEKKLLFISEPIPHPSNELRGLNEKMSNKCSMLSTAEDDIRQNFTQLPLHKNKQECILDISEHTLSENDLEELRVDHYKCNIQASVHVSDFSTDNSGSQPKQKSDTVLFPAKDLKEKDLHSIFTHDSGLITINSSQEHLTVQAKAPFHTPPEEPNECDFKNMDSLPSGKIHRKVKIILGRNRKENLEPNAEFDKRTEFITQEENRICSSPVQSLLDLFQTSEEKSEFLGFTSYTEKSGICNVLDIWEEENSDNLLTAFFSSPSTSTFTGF

| Papp at 2.5 h [1] [×10⁻⁶ cm/s] | IC50 [2] [nM] | SMILES | PAMPA prediction of the penetration into the central nervous system (CNS) [1] | Reversal of cell death caused by ethacrynic acid (neuroprotective effect, MTT viability) ([3]; SH-SY5Y cells, ethacrynic acid 20 μM, inhibitor at 10 μM, viability at 24 hours) | mortality at 20 µM ([3]; Homo sapiens, SH-SY5Y, 24 h, read-out: Cell mortality due to excess TDP-43 phosphorylation) [%] |
| --- | --- | --- | --- | --- | --- |
| 2.5 ± 0.1 | 1080 | COc1ccc(C(=O)CSc2ncnc3[nH]cnc23)cc1 [compound 2, 1-(4-methoxyphenyl)-2-((9H-purin-6-yl)thio)-ethan-1-one] | CNS+/− |  |  |
| 9.6 ± 0.8 | 698 | O=C(CSc1ncnc2[nH]cnc12)c1ccc2ccccc2c1 [compound 3, 1-(naphthalen-2-yl)-2-((9H-purin-6-yl)thio)-ethan-1-one] | CNS+ (permeable to the BBB (CNS+) if it has a permeability >4.48×10^−6 cm·s^−1) | this death is reversed |  |
| 2.4 ± 1 | 1710 | COc1cccc(C(=O)CSc2ncnc3[nH]cnc23)c1 [compound 4, 1-(3-methoxyphenyl)-2-((9H-purin-6-yl)thio)-ethan-1-one] | CNS+/− |  |  |
| 25.1 ± 1.3 | 142 | Clc1ccc(CCSc2ncnc3[nH]cnc23)cc1 [compound 6, 6-((4-chlorophenethyl)thio)-9H-purine] | CNS+ (permeable to the BBB (CNS+) if it has a permeability >4.48×10^−6 cm·s^−1) |  |  |
| 10.6 ± 0.5 | 305 | Clc1cccc(CCSc2ncnc3[nH]cnc23)c1 [compound 7, 6-((3-chlorophenethyl)thio)-9H-purine] | CNS+ (permeable to the BBB (CNS+) if it has a permeability >4.48×10^−6 cm·s^−1) |  |  |
| 11.6 ± 0.5 |  | Clc1ccccc1CCSc1ncnc2[nH]cnc12 [compound 8, 6-((2-chlorophenethyl)thio)-9H-purine] | CNS+ (permeable to the BBB (CNS+) if it has a permeability >4.48×10^−6 cm·s^−1) |  |  |
| 10.2 ± 0.5 | 397 | Fc1ccc(CCSc2ncnc3[nH]cnc23)cc1 [compound 9, 6-((4-fluorophenethyl)thio)-9H-purine] | CNS+ (permeable to the BBB (CNS+) if it has a permeability >4.48×10^−6 cm·s^−1) |  |  |
| 4.5 ± 1.2 | 234 | c1ccc(CSc2ncnc3[nH]ccc23)cc1 [compound 10, 4-(benzylthio)-7H-pyrrolo[2,3-d]pyrimidine] | CNS+ (permeable to the BBB (CNS+) if it has a permeability >4.48×10^−6 cm·s^−1) |  |  |
|  |  | C=C(CC)C(=O)c1ccc(OCC(=O)O)c(Cl)c1Cl [ethacrynic acid, reference compound] |  |  | 40 |

| SMILES | Papp at 2.5 h [1] [×10⁻⁶ cm/s] | IC50 [2] [nM] | PAMPA prediction of the penetration into the central nervous system (CNS) [1] | Reversal of cell death caused by ethacrynic acid (neuroprotective effect, MTT viability) ([3]; SH-SY5Y cells, ethacrynic acid 20 μM, inhibitor at 10 μM, viability at 24 hours) | mortality at 20 µM ([3]; Homo sapiens, SH-SY5Y, 24 h, read-out: Cell mortality due to excess TDP-43 phosphorylation) [%] |
| --- | --- | --- | --- | --- | --- |
| O=C(CSc1ncnc2[nH]cnc12)c1ccc(I)cc1 [compound 5, 1-(4-iodophenyl)-2-((9H-purin-6-yl)thio)-ethan-1-one] | 10.5 ± 1.2 | 380 | CNS+ (permeable to the BBB (CNS+) if it has a permeability >4.48×10^−6 cm·s^−1) |  |  |
